Laboratory results as given in EP0816375A1, “GLYCOCONJUGATES OF OPIATED SUBSTANCES” (ROLABO SL, priority 1995, dated 1997).

Columns and labels:
Male Sprague-Dawley rats = test: antinociceptive tests: tail flick (tail immersion) test and paw pressure test; type: in vivo; details: for degree of analgesia: intraperitoneally administered, codeine 5 mg/Kg compared with compound of example 26
From the text: The compounds of the invention may be compared with the unmodified parent opiates in standard antinociceptive tests, i.e. in terms of potency and duration of action. For example, phamacological tests may be effected to examine the effects of the compounds of the invention on suppressing pain associated to nocius stimuli induced in laboratory animals. Thus, these compounds can be tested by measuring the time treated animals are insensitive to a given painful stimuli.
In spite of the different classes among the compounds of the invention which can be appreciated in accordance to their chemical structure, all are pain-related substances and therefore can be examined on the tail immersion and paw pressure tests as follows.
Male Sprague-Dawley rats weighing 200 g are used. They are housed singly in a room with controlled temperature 21 °C on a 12h light-dark cycle and given free access to food and water.
The tail flick test, is conducted as described by D'Amour F.E. and Smith D.L. in A method for determining loss of pain sensations, J.Pharmacol. Exp. Ther. 72,74, 1941.
Mechanical nociceptive thresholds are determined by the paw pressure test on the left hind paw as described in the literature (Randall L.O. and Selito J.J. A method for measurement of analgesic activity on inflamed tissue, Arch. Int. Pharmacodyn. Ther. 1957, 11, 409-419.). Pain thresholds are measured with an analgesymeter. The apparatus is set up to apply a force of 0-1000 g increasing from zero at a rate of 64 g/s. The nociceptive threshold is taken as the point at which the rat vocalize or struggle vigorously.

[1] = cited from earlier work; for analgesic activity: compared with the parent drug morphine
[2] = blood of patients taking morphine; cited from earlier work

Compound	analgesic activity [1]	concentration in blood relative to morphine [2]	degree of analgesia (Male Sprague-Dawley rats)	other results
CN1CC[C@]23c4c5ccc(O)c4O[C@H]2[C@@H](O)C=C[C@H]3[C@H]1C5 [morphine]	–	–	–	analgesia (Male Sprague-Dawley rats; rat, in vivo, ip, 5 mg/kg): 65-75%
CN1CC[C@]23c4c5ccc(O)c4O[C@H]2[C@@H](O[C@@H]2O[C@H](C(=O)O)[C@@H](O)[C@H](O)[C@H]2O)C=C[C@H]3[C@H]1C5 [Example M6G, Morphine 6-glucuronide]	several times more active than the parent drug	two fold higher than morphine	–	analgesic activity relative to morphine ([1]; injected intrathecally): much more active than morphine
CCCCCCCCNC(=O)[C@H]1O[C@@H](Oc2ccc3c4c2O[C@H]2[C@@H](O)C=C[C@H]5[C@@H](C3)N(C)CC[C@@]452)[C@H](O)[C@@H](O)[C@@H]1O [Example 1, 3-Morphinyl n-octyl-(β-D-glucopyranosyl)-uronamide acetate]	–	–	–	analgesia (Male Sprague-Dawley rats; intraperitoneal administration, dosis of 0.1 mg/Kg, maximal antinociceptive response): 100%
COc1ccc2c3c1O[C@H]1[C@@H](O)C=C[C@H]4[C@@H](C2)N(C)CC[C@@]341 [codeine]	–	–	the same degree of analgesia as compound of example 26	–
CN1CC[C@]23c4c5ccc(O[C@@H]6O[C@H](C(=O)O)[C@@H](O)[C@H](O)[C@H]6O)c4O[C@H]2[C@@H](O)C=C[C@H]3[C@H]1C5 [Example M3G, Morphine 3-glucuronide]	not analgesic	approximately 20 fold	–	analgesia (Male Sprague-Dawley rats; intraperitoneal administration, dosis of 1 mg/Kg, same effect as morphine 5 mg/Kg): 65-75%
COc1ccc2c3c1O[C@H]1[C@@H](O[C@@H]4O[C@H](CO)[C@@H](O)[C@H](O)[C@H]4O)C=C[C@H]4[C@@H](C2)N(C)CC[C@@]341 [Example 26, 6-Codeinyl-β-D-glucopyranoside acetate]	–	–	the same degree of analgesia	–
